Laboratory results from patent US11478466B2, “Small molecule promoting osteoblast differentiation” (Cornell University, priority 2019, dated 2022).

Columns and labels:
adult zebrafish = test: Adult zebrafish caudal fin regeneration model; type: in vivo, Danio rerio; conditions: 15 μM in tank water, 26 h regeneration at 32° C., vs DMSO
Text: We next tested the regenerative capabilities of zebrafish, which have a robust capacity to replace and renew organs and tissues derived from all three germ layers. Regenerating fin joints are reported to constitute a pre-osteoblast niche from which OSX-expressing (Sp7+) osteoblasts radiate de novo (Ando et al., 2017). Simultaneously, osteoblasts and osteogenic hypertrophic chondrocytes in both early and later stages of differentiation express collagen10 (col10a1) (Huycke et al., 2012).
Animals studies were performed according to protocols approved by the WCMC IACUC. Wildtype (AB/TU hybrid) zebrafish were maintained at 28.5° C. Larval fish were treated from 7 dpf to 8 dpf in tank water with DMSO or with a 24-hour pulse of 15 μM DIPQUO or inert analog BT344 or BT345, and were fixed at 9 dpf in 4% paraformaldehyde overnight rocking at 4° C. Fixed larvae were washed in PBS-0.1% Tween-20 (PBST), followed by 50% ethanol/50% PBST. Larvae were transferred to staining solution (66.5% ethanol, 100 mM MgCl2, 0.02% alizarin red) and incubated for 40 hours, rocking at room temperature in the dark. Larvae were washed in H2O+0.1% Tween-20, and excess stain removed by bleaching for approximately 10 minutes in the dark with a 1:1 mixture of 3% […] and 2% KOH. […] Images were acquired on a Zeiss LSM 800 confocal microscope and Sp7^+/col10a1^+ cells quantified using ImageJ.

[1] = tested on: alkaline phosphatase (ALP)
AP-1 response element = AP-1 response element luciferase reporter assay; type: cell-based; conditions: 293T HEK cells, 7 hours, various concentrations
Procedure: For AP-1 reporter assays, 293T HEK cells were seeded at 0.25×10^6 cells/well of a gelatin-coated 24-well plate one day before transfection. Plasmid transfections were performed using Lipofectamine LTX (Invitrogen) according to manufacturer's protocol. Briefly, 293T HEK cells were co-transfected with pGL4.44 AP1 [luc2P/AP1 RE/Hygro] reporter plasmid (Promega) and SV40Renilla plasmid as a transfection control. 24 hours after transfection, cells were incubated in serum free DMEM media for 24 hours. The following day, cells were treated with 10 ng/ml PMA (Phorbol 12-myristate 13-acetate; Tocris) or indicated concentration of DIPQUO in serum free DMEM for 7 hours prior to lysis with 1× Passive Lysis buffer (Promega). Luciferase expression was measured using Dual-Glo Luciferase Assay (Promega).

[2] = tested on: primary human mesenchymal stem cells (hMSCs); test: In vitro mineralization assay (alizarin red) in hMSCs; type: cell-based; conditions: hMSCs in osteogenic medium, 10 μM from day 12 to 18, normalized to cell number
Procedure: To extend these observations to human osteoblast maturation, a quantitative assay was used to analyze mineralization in differentiating primary human mesenchymal stem cells (hMSCs). Bone marrow-derived hMSCs were cultured in unbiased growth medium for at least two passages and then cultured in osteogenic medium for 12 to 21 days and stained with alizarin red to identify a time window in which spontaneous mineralization first occurred (FIG. 4A). Subsequently, hMSCs in osteogenic medium were treated continuously with DIPQUO from day 12 to 18, stained and compared with equivalent DMSO treated controls, and then normalized to total cell numbers (FIG. 4B). DIPQUO-treated samples incorporated alizarin red in a molar ratio approximately 5 times greater than DMSO-treated samples (FIGS. 4C and 4D).
For mineralization studies, primary bone marrow-derived hMSCs (Lonza) were maintained and passaged in complete hMSC growth medium (Lonza). Cells were then switched to osteogenic medium (Lonza PT-3002) for 12 days, after which they were treated with DMSO or 10 μM DIPQUO for an additional 6 days. […] Staining was quantified using the Osteogenesis Quantitation kit (Millipore ECM815) following manufacturer's instructions. […] Absorbance was measured at 405 nm using an EMax Plus microplate reader and SoftMax Pro 7.0 software. […]

Cc1cc(C)c2[nH]c(=O)c(-c3[nH]cnc3-c3ccccc3)cc2c1 [RU-0226606, 6,8-dimethyl-3-(4-phenyl-1H-imidazol-5-yl)quinolin-2(1H)-one]
number of Sp7+/Col10a1+ cells emanating from new fin ray joints (adult zebrafish): significantly increased
RFU Score (10 μM) ([1]; 154-analog library, 10 μM, C2C12, duplicate): 3104
Fluo. Z Score ([1]; SAR of library and proprietary analogs, AttoPhos assay, C2C12): 34.56 ± 1.80
RFU Score Threshold ≥ 800 ([1]; primary screen, 10 μM, C2C12, 4 days, Ex 450/Em 580 nm, rank in brackets not taken): 4000 (1)
Fluorescence Z Score Threshold ≥ 10 ([1]; primary screen, 10 μM, C2C12, 4 days, Z score on DMSO control wells): 94.38 (1)
AP-1 response element luciferase reporter activation (AP-1 response element): Neither did DIPQUO stimulate activation
alizarin red incorporation, molar ratio relative to DMSO-treated samples [2]: approximately 5 times
